Measurements: patent US20170271704A1, “MITIGATION OF CROSSOVER WITHIN FLOW BATTERIES” (LOCKHEED MARTIN ADVANCED ENERGY STORAGE,LLC, priority 2016, published 2017)

Tests used:
[1] = in water; active material for positive half-cell of a flow battery; cited from earlier work
[2] = Aqueous solubility (Table 1 comparison of positive half-cell active materials); settings: effective concentration of transferrable electrons (solubility x electrons transferred)

Fe(CN)6^3−^/4−
Aqueous Solubility [1]: 1300 to 1600 mM | Electron Aqueous Solubility [2]: 1300 to 1600 mM
